Key:
Control cells = assay: % Survival (Colony Assay), control cells; assay type: cell-based
Experimental: (§1) Experiments were also performed to determine the anti-apoptotic effect conferred by overexpression of GRP78. This task was completed.
(§2) Clonogenic Survival Assays—Four thousand cells were seeded into 10-cm-diameter dishes. […] After drug treatment, the cells were grown in fresh medium for 10 to 14 days. The colonies were washed with ice-cold PBS, fixed with methanol, and stained with 10% Giemsa staining solution. The surviving fraction was determined by dividing the number of the surviving colonies in the drug-treated cells by the number of colonies in the non-treated control groups.

[1] = system: GRP78 Overexpression cells; assay: % Survival (Colony Assay), GRP78 overexpression; assay type: cell-based; conditions: for % Survival (Colony Assay): GRP78 Overexpression
Experimental: as §1, §2

CHO cells [2] = assay: Annexin V staining and FACS analysis, CHO cells; assay type: cell-based, Chinese hamster; conditions: 30 μM etoposide for 6 h
From the text: (§3) FIG. 3, Panel A depicts GRP78 overexpression protecting cells from etoposide-induced apoptosis. […] Viable cells are those with low annexin or no annexin and PI staining (lower left panel). Early stage apoptotic cells are represented by high annexin and low PI staining (lower right panel), later stage apoptotic cells represented by high annexin and high PI staining (upper right panel), and necrosis is represented by cells with high PI and low annexin staining (upper left panel).
(§4) Annexin V Staining and FACS Analysis—CHO, C.1, and T24/83 cells were trypsinized, washed twice with ice-cold PBS, pH 7.4, and resuspended in […] binding buffer (10 mM HEPES, pH 7.4, 140 mM NaCl, 2.5 mM CaCl2 at a concentration of 1×10^6 cells/ml. One hundred μl of cell suspension was transferred to 5-ml plastic tubes, and 5 μl of annexin V-fluorescein isothiocyanate (PharMingen) and 4 μl of 0.5 mg/ml PI were added. The cells were gently vortexed and incubated in the dark at room temperature for 20 min. Four hundred μl of binding buffer was added to each tube, and annexin V staining was analyzed by flow cytometry within 1 h. Cells negative for both PI and annexin V staining are live cells, annexin V positive staining cells are early apoptotic cells, and PI positive and annexin V positive staining cells are primarily cells in late stages of apoptosis.
(§5) The apoptotic cells were identified by annexin V labeling.

[3] = system: C.1 cells (CHO derivative overexpressing GRP78); assay: Annexin V staining and FACS analysis, C.1 cells; assay type: cell-based, Chinese hamster; conditions: 30 μM etoposide for 6 h
From the text: as §3, §4, §5

T24/83-pcDNA cells = assay: Annexin V staining and FACS analysis, T24/83-pcDNA cells; assay type: cell-based, human; conditions: versus non-treated
Experimental: as §4
(§6) A pair of stably transfected human transitional bladder carcinoma T24/83 cell lines selected and cultured under identical conditions, were used to determine the effect of GRP overexpression on neoplastic cells. The cell line, referred to as T24/83-GRP78, overexpressed human GRP78, and the other line, referred to as T24/83-pcDNA, was stably transfected with the empty expression vector pcDNA (28).

T24/83-GRP78 cells [4] = assay: Annexin V staining and FACS analysis, T24/83-GRP78 cells; assay type: cell-based, human; conditions: versus non-treated
Experimental: as §4, §6

endogenous GRP78 = assay: Immunoblot of endogenous GRP78 in MDA-MB-435 cells infected with 320 bp AS adenovirus, with or without etoposide; assay type: cell-based, human; conditions: mock-infected, etoposide treatment by itself
Experimental: The same cells were infected with the GFP negative control adenovirus. […] Thus, both the full length and the 320 bp version of the AS construct targeted against GRP78 blocked expression of GRP78 in a 293T test system.
Western Blotting—The cell lysate was prepared in radioimmune precipitation assay buffer and subjected to immunoblot with antibodies against GRP78, GRP94, topoisomerase II, caspase-7, and α-actin as described. Nitrocellulose membranes containing the transferred proteins were blocked in Tris-buffered saline containing 5% non-fat dry milk and 0.1% Tween 20 for 1 h at room temperature and were probed with the respective primary antibodies. For GRP78, an anti-KDEL mouse monoclonal antibody (SPA-827), an anti-GRP78 rabbit polyclonal antibody directed against the carboxyl ten amino acids of rat GRP78 (SPA-826) (StressGen, Victoria, Canada), or an anti-hamster GRP78 rabbit polyclonal antibody at 1:3000, 1:2000, and 1:5000 dilution, respectively, was used. […]

caspase-7 = assay: Caspase-7 activation in etoposide-treated CHO cells (Western blot); assay type: cell-based, Chinese hamster; conditions: 100 μM etoposide for 6 h, harvested after 24 h
Experimental: FIG. 5, Panel A depicts the effect of GRP78 overexpression on topoisomerase II expression and caspase-7 activation. Total protein lysates were prepared from non-treated (Ctrl) or etoposide-treated (Etop) CHO and C.1 cells.
Among the executor caspases, caspase-7 has been reported to be associated with the ER. Upon induction of apoptosis, procaspase-7 (35 kDa) is first converted into a 32-kDa intermediate, which is further processed into active 20- and 11-kDa subunits. […] Upon longer exposure of the autoradiogram, the active 20- and 11-kDa forms were evident in the etoposide-treated cells. When GRP78 was overexpressed, a low level of caspase-7 activation was detected in both the non-treated and etoposide-treated cells. […] In addition, upon addition of cytochrome c, caspase-7 activation was higher in CHO cells than C.1 cells, as evidenced by the increase in the active 20- and 11-kDa forms in the CHO samples compared with the C.1 samples.
The cells were suspended in 5 volumes of a hypotonic buffer (5 mM Tris-HCl, pH 7.4, 5 mM KCl, 1.5 mM MgCl2, 0.1 mM EGTA, pH 8.0, and 1 mM dithiothreitol) in the presence of 2 μg/ml leupeptin, pepstatin, and aprotinin protease inhibitors. After incubation on ice for 20 min, sucrose was added to a final concentration of 250 mM, and the cells were disrupted by douncing eight times in a 1-ml Wheaton Dounce homogenizer. […]

CHO cells [5] = assay: DNA fragmentation assay, CHO cells; assay type: cell-based, Chinese hamster; conditions: etoposide-treated CHO cells, compared with C.1 cells; 100 μM for 12 h, harvested after 48 h
Experimental: The DNA fragmentation assays were performed using an apoptosis DNA ladder kit (Roche Molecular Biochemicals) according to manufacturer's instructions.
as §5

T24/83-GRP78 cells [6] = assay: Clonogenic survival assays, T24/83 cells overexpressing GRP78; assay type: cell-based, human; conditions: versus T24/83-pcDNA cells
Experimental: as §2

COc1cc([C@@H]2c3cc4c(cc3[C@@H](O[C@@H]3O[C@@H]5CO[C@@H](C)O[C@H]5[C@H](O)[C@H]3O)[C@H]3COC(=O)[C@H]23)OCO4)cc(OC)c1O [Etoposide]
% Survival (Colony Assay) (Control cells; etoposide 0.2 μM): 71% | % Survival (Colony Assay) (Control cells; etoposide 0.4 μM): 67% | % Survival (Colony Assay) (Control cells; etoposide 0.8 μM): 26% | % Survival (Colony Assay) (Control cells; etoposide 1.6 μM): 1.5% | % Survival (Colony Assay) ([1]; etoposide 0.2 μM): 93% | % Survival (Colony Assay) ([1]; etoposide 0.4 μM): 93% | % Survival (Colony Assay) ([1]; etoposide 0.8 μM): 77% | % Survival (Colony Assay) ([1]; etoposide 1.6 μM): 63% | effect of GRP78 overexpression on sensitivity to the drug ([1]; GRP78 overexpression versus control): confers resistance | percentage of apoptotic cells (annexin V labeling) upon etoposide treatment (CHO cells [2]; non-treated 9%): 90% | increase of the percentage of apoptotic cells upon etoposide treatment (CHO cells [2]; versus non-treated): 10 fold | percentage of apoptotic cells (annexin V labeling) upon etoposide treatment ([3]; non-treated 15%): 70% | increase of the percentage of apoptotic cells upon etoposide treatment ([3]; versus non-treated): 4.7 fold | increase of the percentage of annexin V-labeled cells by etoposide treatment (T24/83-pcDNA cells): 2.7 fold | increase of the percentage of annexin V-labeled cells by etoposide treatment (T24/83-GRP78 cells [4]): 1.4 fold | reduction of the amount of endogenous GRP78 (endogenous GRP78): about 40% | caspase-7 activation (caspase-7): activation of caspase-7 | DNA fragmentation (CHO cells [5]): More extensive DNA fragmentation | resistance of T24/83 cells overexpressing GRP78 (clonogenic survival) (T24/83-GRP78 cells [6]): more resistance

Source: patent US20050143291A1, “Methods and compositions for modulating apoptosis” (priority 2003, published 2005)
